Test results as given in ChEMBL document CHEMBL1201862, “PubChem BioAssay data set” (2004).
Active and inactive are the calls of the source.

Tests used:
[1] = target: T1, DNA repair protein RAD52 homolog (Homo sapiens, UniProt P43351); type: functional, biochemical
T1 sequence (P43351 whole entry): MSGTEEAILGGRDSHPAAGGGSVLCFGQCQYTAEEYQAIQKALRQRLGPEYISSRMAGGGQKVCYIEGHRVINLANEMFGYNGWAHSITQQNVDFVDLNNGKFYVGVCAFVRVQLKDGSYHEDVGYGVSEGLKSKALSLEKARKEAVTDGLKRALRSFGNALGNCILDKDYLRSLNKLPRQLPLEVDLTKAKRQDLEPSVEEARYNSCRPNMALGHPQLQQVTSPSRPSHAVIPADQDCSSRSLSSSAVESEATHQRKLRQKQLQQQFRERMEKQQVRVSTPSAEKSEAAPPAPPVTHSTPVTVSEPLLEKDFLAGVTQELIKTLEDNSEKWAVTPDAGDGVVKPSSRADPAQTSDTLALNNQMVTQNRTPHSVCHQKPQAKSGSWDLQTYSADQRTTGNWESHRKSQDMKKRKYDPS

[2] = target: T2, Rac GTPase-activating protein 1 (Homo sapiens, UniProt Q9H0H5); test: MgcRacGAP GTPase-activating activity inhibitors, confirmation, biochemical, ADP Hunter fluorescence, primary and confirmatory (AID 624330); type: functional
T2 sequence (Q9H0H5 whole entry): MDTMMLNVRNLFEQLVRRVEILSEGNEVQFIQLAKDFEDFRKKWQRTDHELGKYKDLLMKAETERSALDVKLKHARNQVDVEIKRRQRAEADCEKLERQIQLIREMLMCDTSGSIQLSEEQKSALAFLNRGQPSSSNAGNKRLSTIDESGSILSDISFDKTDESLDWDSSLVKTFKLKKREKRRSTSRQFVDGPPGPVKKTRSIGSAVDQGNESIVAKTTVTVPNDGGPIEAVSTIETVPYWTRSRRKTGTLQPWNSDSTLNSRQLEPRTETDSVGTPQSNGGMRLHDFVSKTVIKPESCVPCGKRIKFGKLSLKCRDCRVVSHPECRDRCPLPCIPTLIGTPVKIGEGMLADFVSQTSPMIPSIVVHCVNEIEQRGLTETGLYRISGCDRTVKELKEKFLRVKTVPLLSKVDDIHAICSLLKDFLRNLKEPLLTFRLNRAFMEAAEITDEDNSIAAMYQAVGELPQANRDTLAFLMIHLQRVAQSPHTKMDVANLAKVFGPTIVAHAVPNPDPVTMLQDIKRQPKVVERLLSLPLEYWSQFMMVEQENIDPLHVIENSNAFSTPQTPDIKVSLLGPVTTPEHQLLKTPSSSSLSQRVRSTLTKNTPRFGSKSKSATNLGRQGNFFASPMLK

[3] = target: T3, Oxysterols receptor LXR-beta (Homo sapiens, UniProt P55055); type: functional, cell-based;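 also: agonist activity at LXR measured by a cell-based luminescence readout across a dose range, run as a counterscreen for daf-12 agonists; HEK293 cells with Gal4-LXR fusion and GAL4-driven luciferase reporter; potency for activation of Gal4-LXR reporter so compounds are agonists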
T3 sequence (P55055 whole entry): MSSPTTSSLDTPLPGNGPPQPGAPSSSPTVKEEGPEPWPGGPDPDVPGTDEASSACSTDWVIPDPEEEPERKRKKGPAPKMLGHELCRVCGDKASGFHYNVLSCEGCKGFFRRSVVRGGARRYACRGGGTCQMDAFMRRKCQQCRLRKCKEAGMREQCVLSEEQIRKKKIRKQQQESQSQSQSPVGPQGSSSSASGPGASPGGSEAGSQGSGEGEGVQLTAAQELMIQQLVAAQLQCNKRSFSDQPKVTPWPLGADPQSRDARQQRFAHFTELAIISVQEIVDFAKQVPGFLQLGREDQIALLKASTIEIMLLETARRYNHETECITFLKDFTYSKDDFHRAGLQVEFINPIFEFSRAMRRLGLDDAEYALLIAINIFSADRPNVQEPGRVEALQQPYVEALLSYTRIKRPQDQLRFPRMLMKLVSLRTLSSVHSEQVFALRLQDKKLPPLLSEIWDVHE

[4] = microbe, parasite or virus in culture; type: functional; conditions: Mycobacterium tuberculosis
[5] = A549 cell cytotoxicity, dose response, cytotoxicity control, plate reader, cherry-pick, antagonist series (AID 743412); type: functional, cell-based
[6] = miR-122 activators in hepatoma reporter cells, dose response, cell-based, Huh7 psiCHECK-miR122, Renilla luciferase, cherry-picked (AID 651956); type: functional;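 also: huh7 hepatoma cells stably carrying a psiCHECK-2 miR-122 sensor plasmid; renilla luciferase signal reporting endogenous miR-122 activity after 48 h compound exposure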
[7] = HepG2 cell cytotoxicity, dose response, cytotoxicity control for Shn3 inhibitor project, CellTiter-Glo, cherry-picked (AID 624134); type: functional, cell-based
[8] = cells; type: functional, cell-based
[9] = cytotoxicity toward NIH3T3 fibroblasts, dose response, counter-screen, cell-based, ATP luminescence, mouse fibroblasts (AID 2010); type: functional;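 also: cells exposed to compound for about 90 hours before reading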
[10] = control 3'UTR Renilla luciferase suppression, dose response, counter-screen for Shn3 inhibitor project, cell-based, Clone20-Shn3RL, cherry-picked (AID 624133); type: functional
[11] = target: T4, Heat shock factor protein 1 (Mus musculus, UniProt P38532); test: inhibition of MG132-induced HSE-luciferase signal, confirmation, cell-based, NIH3T3, luminescence, dose retest (AID 2382); type: functional;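 also: NIH3T3 fibroblasts with HSF1-driven luciferase reporter stressed by proteasome inhibitor MG132; luminescence from HSF1-driven luciferase expression after 8 hours of MG132 stress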
T4 sequence (P38532 whole entry): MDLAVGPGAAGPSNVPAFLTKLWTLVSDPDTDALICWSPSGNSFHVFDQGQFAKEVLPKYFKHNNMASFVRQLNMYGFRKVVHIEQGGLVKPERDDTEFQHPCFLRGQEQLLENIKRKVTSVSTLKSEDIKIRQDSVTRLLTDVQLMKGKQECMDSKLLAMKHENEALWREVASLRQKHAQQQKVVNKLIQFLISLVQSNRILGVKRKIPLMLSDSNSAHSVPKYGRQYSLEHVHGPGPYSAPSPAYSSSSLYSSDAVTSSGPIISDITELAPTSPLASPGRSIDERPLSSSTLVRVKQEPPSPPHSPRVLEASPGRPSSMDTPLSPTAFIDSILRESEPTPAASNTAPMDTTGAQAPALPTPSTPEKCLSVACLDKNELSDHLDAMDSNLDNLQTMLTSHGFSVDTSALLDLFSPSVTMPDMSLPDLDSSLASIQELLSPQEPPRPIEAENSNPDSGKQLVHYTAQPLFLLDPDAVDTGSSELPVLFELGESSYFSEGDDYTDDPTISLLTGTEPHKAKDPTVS

[12] = HEK293T cytotoxicity, dose response, cytotoxicity control for miR-122 modulator project, cell-based, activator set, cherry-pick (AID 720690); type: functional;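 also: HEK293T human cells scored for general mammalian cytotoxicity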
[13] = inhibitors of intracellular T. cruzi replication, confirmation, NIH3T3 host cells, beta-gal luminescence (AID 2044); type: functional, cell-based;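 also: intracellular parasites grown in NIH/3T3 mouse fibroblasts as host cells; luminescent beta-galactosidase reporter signal from transgenic T. cruzi replicating inside host cells; inhibitors lower the luminescence signal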
[14] = cells; type: functional, cell-based; remark: listed apart in the source
[15] = test system: Streptococcus sp. 'group A'; test: growth inhibition of control SK(-) GAS strain, dose response, counter-screen for streptokinase expression inhibitor project, luminescence, kanamycin, BacTiterGlo, confirmation (AID 1900); type: functional, organism-based
[16] = target: Heat shock protein HSP 90-alpha (Homo sapiens, UniProt P07900); type: functional, organism-based
[17] = test system: Streptococcus; test: Group A Streptococcus viability loss, dose response, counter-screen for streptokinase expression inhibitor project, luminescence, BacTiterGlo (AID 1915); type: functional, organism-based;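 also: potency for reduction of bacterial viability or growth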
[18] = Shn3 3'UTR reporter inhibitors, dose response, cell-based, Clone20 osteoblasts, firefly luciferase, cherry-picked (AID 624132); type: functional;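 also: firefly luciferase luminescence from reporter carrying the Shn3 3'UTR in osteoblasts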
[19] = CEM21 lymphoblast cell cytotoxicity, dose response, cytotoxicity control for viral fusion inhibitor project, CellTiter-Glo luminescence, cherry-picked (AID 652042); type: functional, cell-based;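 also: potency for signal decrease meaning cytotoxicity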
[20] = target: Glucose-6-phosphate 1-dehydrogenase (Homo sapiens, UniProt P11413); test: human G6PD enzyme inhibitors, dose response, selectivity assay for P. falciparum G6PD inhibitor project, biochemical, fluorescence (AID 504792); type: functional
Sequence of Glucose-6-phosphate 1-dehydrogenase (P11413 whole entry, the tested form may be a part): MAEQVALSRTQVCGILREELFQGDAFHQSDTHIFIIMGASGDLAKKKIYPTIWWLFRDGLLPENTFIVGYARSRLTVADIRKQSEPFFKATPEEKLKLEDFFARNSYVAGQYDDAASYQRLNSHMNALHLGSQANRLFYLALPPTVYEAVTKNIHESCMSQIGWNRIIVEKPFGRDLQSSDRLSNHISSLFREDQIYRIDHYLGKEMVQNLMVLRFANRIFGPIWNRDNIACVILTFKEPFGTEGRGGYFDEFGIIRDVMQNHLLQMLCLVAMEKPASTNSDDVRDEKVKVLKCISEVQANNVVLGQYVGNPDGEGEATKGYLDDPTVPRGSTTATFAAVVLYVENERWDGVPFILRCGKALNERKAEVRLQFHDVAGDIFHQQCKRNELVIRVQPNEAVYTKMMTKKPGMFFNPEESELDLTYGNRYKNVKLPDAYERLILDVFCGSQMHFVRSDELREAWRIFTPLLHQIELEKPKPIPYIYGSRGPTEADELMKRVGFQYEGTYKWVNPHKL

[21] = inhibitors of clade B AD8 Env fusion, dose response, cell-based, cherry-pick (AID 652062); type: functional;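 also: luciferase signal from cell-cell fusion driven by HIV-1 clade B AD8 Env; potency is for inhibitors of fusion seen as a drop in luminescence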
[22] = off-target signal loss in HeLa-CEM21 co-culture – HeLa F-luc CTL cells, cherry-picked, counter-screen for HIV-1 Env fusion inhibitor project, dose response (AID 652040); type: functional, cell-based;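 also: potency for signal decrease marking cytotoxic or nonspecific inhibition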
[23] = ZM109 Env clade C HIV-1 fusion inhibitors, dose response, HeLa effector, CEM target cells, luciferase, cherry-pick (AID 652058); type: functional, cell-based
[24] = inhibitors of HIV Env-driven cell fusion, dose response, cherry-pick (AID 652057); type: functional, cell-based
[25] = IGROV1 ovarian cancer cell cytotoxicity, dose response, PAX8 inhibitor project, plate reader, dry powder samples (AID 743043); type: functional, cell-based; conditions: IGROV-1
[26] = NIH:OVCAR-3 ovarian cancer cell cytotoxicity, dose response, PAX8 inhibitor project, plate reader, dry powder samples (AID 743044); type: functional, cell-based
[27] = target: Paired box protein Pax-8 (Homo sapiens, UniProt Q06710); test: inhibitors of PAX8-driven TPO luciferase reporter, dose response, RMG-I cells, cherry-pick (AID 687027); type: functional, cell-based;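 also: luciferase reporter driven by Pax8 target thyroperoxidase promoter measured by SteadyGlo luminescence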
Sequence of Paired box protein Pax-8 (Q06710 whole entry): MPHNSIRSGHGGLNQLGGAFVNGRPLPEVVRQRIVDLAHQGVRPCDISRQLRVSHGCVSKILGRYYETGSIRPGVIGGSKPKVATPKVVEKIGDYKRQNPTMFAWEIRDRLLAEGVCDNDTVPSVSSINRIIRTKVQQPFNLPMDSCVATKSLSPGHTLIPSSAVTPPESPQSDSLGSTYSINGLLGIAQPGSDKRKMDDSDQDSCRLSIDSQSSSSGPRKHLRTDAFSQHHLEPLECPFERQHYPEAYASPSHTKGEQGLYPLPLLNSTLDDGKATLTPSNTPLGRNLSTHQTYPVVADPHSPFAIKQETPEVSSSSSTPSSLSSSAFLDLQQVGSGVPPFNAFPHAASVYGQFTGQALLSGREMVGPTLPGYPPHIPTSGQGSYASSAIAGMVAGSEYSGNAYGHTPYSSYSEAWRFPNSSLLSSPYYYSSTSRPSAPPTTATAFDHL

[28] = non-specific cell cytotoxicity, dose response, cytotoxicity control for PAX8 inhibitor project, plate reader, dry powder samples (AID 743021); type: functional, cell-based
[29] = HEK293T cytotoxicity, dose response, cytotoxicity control for miR-122 modulator project, cell-based, inhibitor set, cherry-pick, set 2 (AID 720697); type: functional
[30] = test system: HeLa; test: HeLa cell cytotoxicity, dose response, cytotoxicity control, ATP luminescence, cherry-pick samples (AID 687004); type: functional, cell-based; conditions: Homo sapiens
[31] = cytotoxicity in OVCAR8 ovarian cancer cells, dose response, PAX8 project, cell-based, plate reader, dry powder samples (AID 743197); type: functional; conditions: OVCAR-8
[32] = T. cruzi growth inhibition in host cells, dose response, cell-based, plate reader, dry powder, set 2 (AID 652275); type: functional

SMILES: O=C(CN1CCCCC1)Nc1ccc(N2CCCCCC2)cc1
- AC50 [1]: 22.8 µM (active)
- IC50 [2]: 126 µM (active)

SMILES: Cc1ccc(-c2csc(NC(=O)C[n+]3cc(-c4ccccc4)n4c3CCC4)n2)cc1
- AC50 [1]: 21.1 µM (active)

SMILES: Cc1nnc(SCC(=O)Nc2nsc(-c3ccc(C(C)(C)C)cc3)n2)s1
- EC50 [3]: > 67.5 µM (inactive)

SMILES: Cc1ccc(-n2cc(CN(C)Cc3nccn3C)c(-c3cccc(C)c3)n2)cc1
- CC50 [4]: > 40 µM (active)
- AC50 [5]: > 52 µM (inactive)

SMILES: CC(=O)NC(c1ccc(C)cc1)c1cc(Cl)c2cccnc2c1O (configuration not stated)
- AC50 [6]: 37.4 µM (active)
- AC50 [7]: 4.67 µM (active)
- EC50 [8]: 14.7 µM (active)
- EC50 [9]: 0.763 µM (active)
- AC50 [10]: 3.29 µM (active)
- EC50 [11]: 0.911 µM (active)
- AC50 [12]: 2.8 µM (active)
- EC50 [13]: 0.655 µM (active)
- EC50 [14]: > 350 µM (not active)
- EC50 [15]: 1.38 µM (active)
- AC50 [16]: 3.52 µM (active)
- EC50 [17]: 6.97 µM (active)
- AC50 [18]: 2.12 µM (active)

SMILES: COc1cc(-c2cc(OC)c(O)c(OC)c2)cc(OC)c1O
- AC50 [19]: 27.4 µM (active)
- IC50 [2]: 88.4 µM (active)
- IC50 [20]: > 80 µM (inactive)

SMILES: O=C1[C@H](Cc2ccccc2)NCCCC[C@H](c2ccco2)N1Cc1ccccc1
- AC50 [21]: 35.3 µM (active)
- AC50 [22]: 7.61 µM (active)
- AC50 [23]: 10.4 µM (active)
- AC50 [19]: 39.9 µM (active)
- AC50 [24]: 4.38 µM (active)

SMILES: Cc1nc2cc(Oc3nc(NCCN(C)C)nc4ccsc34)ccc2s1
- AC50 [1]: 21 µM (active)

SMILES: Cc1ccccc1-c1ccc([C@@H]2[C@H](CO)N3CCCCN(C(=O)Nc4cccc(F)c4)C[C@@H]23)cc1
- AC50 [25]: 35.5 µM (active)
- AC50 [6]: 9.43 µM (active)
- AC50 [26]: 20.4 µM (active)
- AC50 [27]: 19.6 µM (active)
- AC50 [28]: 3.19 µM (active)
- AC50 [12]: 13.7 µM (active)

SMILES: CCNC(=O)Nc1ccc2c(c1)C(=O)N(C)[C@H]1CC[C@H](CC(=O)Nc3ccccc3F)O[C@@H]1CO2
- AC50 [29]: 2.11 µM (active)
- AC50 [30]: 0.264 µM (active)

SMILES: N#C[C@@H]1[C@H](c2ccc(-c3ccccc3F)cc2)[C@@H](CO)N1C(=O)c1ccccn1
- AC50 [19]: 67 µM (active)
- AC50 [24]: 62.6 µM (active)

SMILES: Cc1cccc(S(=O)(=O)N2CCCCN3[C@H](CO)[C@H](c4ccc(C#C[C@H](C)O)cc4)[C@H]3C2)c1
- AC50 [25]: 17.6 µM (active)
- AC50 [26]: 30.4 µM (active)
- AC50 [31]: > 70 µM (inactive)
- AC50 [27]: 7.18 µM (active)

SMILES: C[C@@H]1CCCCO[C@H](CN(C)Cc2ccc(Cl)c(Cl)c2)[C@@H](C)CN([C@@H](C)CO)C(=O)c2cc(NC(=O)c3ccccc3)ccc2O1
- AC50 [25]: 47.5 µM (active)
- AC50 [26]: 43.1 µM (active)
- AC50 [31]: 60 µM (active)
- AC50 [27]: 8.87 µM (active)
- AC50 [28]: 52.7 µM (active)

SMILES: CC(C)N1CC2(CN(Cc3ccc(Cl)cc3)C2)Oc2c(NC(=O)c3ccncc3)cccc2C1=O
- AC50 [32]: 0.136 µM (active)

SMILES: COCC(=O)Nc1ccc2c(c1)C(=O)N(C)[C@@H]1CC[C@H](CC(=O)N3CCc4ccccc4C3)O[C@H]1CO2
- AC50 [29]: 9.29 µM (active)
- AC50 [12]: 37 µM (active)

SMILES: CC(C)N1C(=O)c2cccc(NC(=O)c3ccncc3)c2O[C@H](CN(C)Cc2ccc(Cl)cc2)[C@H]1C
- AC50 [32]: 0.00096 µM (active)

SMILES: CC(C)(C)[S+]([O-])N1Cc2cc(C(=O)NCc3ccc4c(c3)OCO4)nc(-c3cccc(-c4cccc(F)c4)c3)c2[C@H]1CCO (some centres not stated)
- AC50 [32]: 0.394 µM (active)
